Test results reported in PMC11053488, “Influence of Aza-Glycine Substitution on the Internalization of Penetratin” (Pharmaceutics, 2024).

Experiments:
[1] = system: A-431 cells; assay: Cellular uptake of Cf-labelled peptides by flow cytometry; type: cell-based; settings: 5 µM, 90 min, 37 °C, compared with Pen(desMet)
Procedure: The cells were treated with a solution of peptides at 5 µM concentration at 37 °C for 90 min. The measured fluorescence values were corrected with the autofluorescence of the untreated cells. To determine the toxicity of the conjugates, the live/dead cell ratio was calculated.
Figure 2 Comparison of the cellular uptake of the labelled penetratin derivatives into A-431 cells. Cells were incubated with 5 µM peptide solution for 90 min at 37 °C. The fluorescence intensity of the cells was determined by flow cytometry. The fluorescence intensity is relative to Pen(desMet) at 5 µM (100%). Data represent the mean ± standard deviation (SD). Any significant difference to the control was measured using the Student’s t test.

[2] = system: A-431 cells; assay: Cellular uptake after pretreatment with endocytosis inhibitors or ATP depletion, flow cytometry; settings: then peptide 5 µM 90 min; for Cellular uptake with NaN3 and DOG, % of the untreated control: NaN3 500 µM and 2-deoxyglucose 250 mM pretreatment 30 min (ATP depletion), mean
Procedure: The cells were incubated for 24 h at 37 °C. The cells were treated with a serum-free medium as a negative control and with peptide solutions in 5 µM concentration in a serum-free medium for 90 min. After the incubation, the cells were washed, and 100 µL of trypsin was applied for 10 min to eliminate peptides adhered to the membrane and to detach the cells from the plates. Trypsin activity was stopped by adding 800 µL of HPMI buffer (glucose, NaHCO3, NaCl, HEPES, KCl, MgCl2, CaCl2, Na2HPO4·2H2O) containing 10% fetal bovine serum. Cells were then transferred from the plates to FACS tubes. Centrifugation of the cells took place at 216× g at 4 °C for 5 min, and the supernatant was removed. Resuspension of the cells was performed by 250 µL HPMI, followed by fluorescence intensity measurements using a flow cytometer (BDLSR II, BD Bioscience, San Jose, CA, USA). The analysis of the data was performed using FACSDiVa 5.0 software. To study the effect of inhibitors, cells were pretreated with the solution of inhibitors for 30 min, followed by the treatment with the peptide solution at 5 µM for 90 min. Inhibition of macropinocytosis was performed by using 5-(N-Ethyl-N-isopropyl)amiloride (EIPA) (500 µM) [46], of clathrin-mediated endocytosis by using chlorpromazine (CPZ) (300 µM) [47]. The caveolae/lipid raft-mediated endocytosis was prevented with methyl-β-cyclodextrin (mBCD) (36 mM) [48], and colchicine (Col) (200 mM) was employed to determine the role of microtubules and consequently, the significance of pinocytosis [49]. To inhibit all endocytosis routes, sodium azide (NaN3) (500 µM) and 2-Deoxyglucose (DOG) (250 mM) was used.
The following endocytic inhibitors were used: EIPA (5-(N-ethyl-N-isopropyl) amiloride) as an inhibitor of macropinocytosis, chlorpromazine (CPZ) as an inhibitor of a clathrin-mediated endocytosis, and the cholesterol-depleting reagent methyl-beta-cyclodextrin (mBCD) was used to inhibit the caveolae-mediated endocytosis. Finally, colchicine (COL) was applied to inhibit microtubule formation.
A-431 cells were pretreated with the EIPA (500 µM), CPZ (300 µM), mBCD (36 mM), COL (200 mM), NaN3 (500 µM), and DOG (250 mM) for 30 min, followed by treatment with peptides (5 µM) for 90 min. Any significant difference from the control was determined by Student’s t-test (* p < 0.05). Data represent the mean ± standard deviation (SD).The asterisks show a significant difference between the control Pen(desMet) and its derivatives (* p < 0.05, ** p < 0.01, *** p < 0.001).
In addition, the A-431 cells were pretreated with sodium azide (NaN3) and 2-deoxyglucose (DOG) to study the energy-independent pathways. This pretreatment results in ATP depletion and therefore the inhibition of energy-dependent pathways (Figure 3).

Row | Substance | Cellular uptake (in words) [1] | Cellular uptake with NaN3 and DOG, % of the untreated control [2] [%] | Effect of azide/DOG treatment on cellular uptake (in words) ([2]; NaN3 500 µM and DOG 250 mM pretreatment 30 min)
1 | Cf-RQIKI-azaGly-FQNRRKWKK-NH2 [Trp48aGlyPen(desMet), Cf-labelled Pen(desMet) with Trp48 replaced by aza-glycine] | dramatically decreased the cellular uptake | – | –
2 | Cf-RQIKIWFQNRRKGKK-NH2 [Trp56GlyPen(desMet)] | – | 50 | –
3 | Cf-RQIKIGFQNRRKWKK-NH2 [Trp48GlyPen(desMet), Cf-labelled Pen(desMet) with Trp48 replaced by glycine] | dramatically decreased the cellular uptake | – | –
4 | Cf-RQIKIWFQNRRK-azaGly-KK-NH2 [Trp56aGlyPen(desMet)] | – | 97 | did not have any effect
5 | Cf-RQIKIWFQNRRKWKK-NH2 [Pen(desMet)] | – | 79 | –
